The text below walks through data of patent publication US20230265116A1, “DEGRADATION OF (EGFR) BY CONJUGATION OF EGFR INHIBITORS WITH E3 LIGASE LIGAND AND METHODS OF USE” (BEIGENE, LTD., priority 2020, published 2023).

For assay [1], the system named is EGFR Del19/T790M/C797S (H1975-clone #28). Kind of assay: EGFR degradation HTRF assay, H1975-clone #28 DTC cells. The class given is cell-based. As to conditions: H1975 # 28 DTC cells; for DC50: EGFR degradation, IC50 (DC50) from curve fit, read-out: DC50(nM) H1975 # 28 DTC; for Dmax (%) H1975 # 28 DTC: maximum percentage of inhibition (degradation). On the procedure: H1975-clone #28(Del19/T790M/C797S) and H1975-clone #23(Del19/C797S). EGFR-Del19/T790M/C797S and EGFR-Del19/C797S were stably expressed in H1975 cell lines by lentivirus-mediated over-expression, respectively. The EGFR over-expressed cells then underwent gene knockout, in which the EGFR targeting sgRNA was designed to only target the endogenous EGFR copies and preserve the exogenous EGFR copies. Followed by the gene knockout, the edited H1975 cells were seeded in 96 well plates at the concentration of 1 cell/well, cultured for about 2 weeks to allow single clones formation. The formed clones were screened by DNA sequencing and whole exon sequencing analysis for the desired edition. H1975-clone #28 and H1975-clone #23 were finally confirmed as homozygous Del19/T790M/C797S EGFR and Del19/C797S EGFR clones, respectively.
(§1) BaF3 WT(wild type), BaF3-LTC(L858R/T790M/C797S) and BaF3-DTC(Del19/T790M/C797S) cells are treated with compounds diluted in 0.2% DMSO cell culture medium and incubate for 16h, 37° C., 5% CO2, H1975-#36, H1975-#28, H1975-#23 and HCC827 cells are treated with compounds diluted in 0.2% DMSO cell culture medium on day 2, incubate for 16h, 37° C., 5% CO2.the final concentriation of compounds in all assay is start with 10 uM, 5-fold dilution, total 8 doses were included.
(§2) After 16h treatment, add HTRF lysis buffer to each well; seal the plate and incubate 1 hour at room temperature on a plate shaker; Once the cells are lysed, 16 μL of cell lysate are transferred to a PE 384-well HTRF detection plate; 4 μL of pre-mixed HTRF antibodies are added to each well; Cover the plate with a plate sealer, spin 1000 rpm for 1 min, Incubate overnight at room temperature; Read on BMG PheraStar with HTRF protocol (337 nm-665 nm-620 nm).
(§3) The inhibition (degradation) percentage of the compound was calculated by the following equation: Inhibition percentage of Compound=100-100×(Signal-low control)/(High control-low control), wherein signal=each test compound group
(§4) High control=Cell group with added DMSO and without compound, indicating microplate readings without EGFR degradation;
(§5) Dmax is the maximum percentage of inhibition (degradation).
(§6) The IC50 (DC50) value of a compound can be obtained by fitting the following equation
(§7) Y=Bottom+(TOP−Bottom)/(1+((IC50/X)^hillslope))
(§8) Wherein, X and Y are known values, and IC50, Hillslope, Top and Bottom are the parameters obtained by fitting with software. Y is the inhibition percentage (calculated from the equation), X is the concentration of the compound; IC50 is the concentration of the compound when the 50% inhibition is reached. The smaller the IC50 value is, the stronger the inhibitory ability of the compound is. Vice versa, the higher the IC50 value is, the weaker the inhibitory ability of the compound is; Hillslope represents the slope of the fitted curve, generally around 1*; Bottom represents the minimum value of the curve obtained by data fitting, which is generally 0%±20%; Top represents the maximum value of the curve obtained by data fitting, which is generally 100%±20%. The experimental data were fitted by calculating and analyzing with Dotmatics data analysis software.

Assay [2] has as its target T1, EGFR L858R/T790M/C797S (BaF3-LTC cells) (Homo sapiens, UniProt P00533, C797S/L858R/T790M).
T1 construct: expressed in transfected cells; host or cells: BaF3
Kind of assay: EGFR degradation HTRF assay, BaF3-LTC cells. The class given is cell-based. As to conditions: BaF3-LTC cells; for DC50: EGFR degradation, IC50 (DC50) from curve fit, read-out: DC50(nM) BaF3-LTC; for Dmax: maximum percentage of inhibition (degradation), read-out: Dmax (%) BaF3-LTC. Here is the method:
as §1, §2, §3, §4, §5, §6, §7, §8
A general note: Time-resolved FRET reads energy transfer from a long-lived donor to a nearby acceptor.

T1 sequence (P00533 25-1210 T790M/C797S/L858R): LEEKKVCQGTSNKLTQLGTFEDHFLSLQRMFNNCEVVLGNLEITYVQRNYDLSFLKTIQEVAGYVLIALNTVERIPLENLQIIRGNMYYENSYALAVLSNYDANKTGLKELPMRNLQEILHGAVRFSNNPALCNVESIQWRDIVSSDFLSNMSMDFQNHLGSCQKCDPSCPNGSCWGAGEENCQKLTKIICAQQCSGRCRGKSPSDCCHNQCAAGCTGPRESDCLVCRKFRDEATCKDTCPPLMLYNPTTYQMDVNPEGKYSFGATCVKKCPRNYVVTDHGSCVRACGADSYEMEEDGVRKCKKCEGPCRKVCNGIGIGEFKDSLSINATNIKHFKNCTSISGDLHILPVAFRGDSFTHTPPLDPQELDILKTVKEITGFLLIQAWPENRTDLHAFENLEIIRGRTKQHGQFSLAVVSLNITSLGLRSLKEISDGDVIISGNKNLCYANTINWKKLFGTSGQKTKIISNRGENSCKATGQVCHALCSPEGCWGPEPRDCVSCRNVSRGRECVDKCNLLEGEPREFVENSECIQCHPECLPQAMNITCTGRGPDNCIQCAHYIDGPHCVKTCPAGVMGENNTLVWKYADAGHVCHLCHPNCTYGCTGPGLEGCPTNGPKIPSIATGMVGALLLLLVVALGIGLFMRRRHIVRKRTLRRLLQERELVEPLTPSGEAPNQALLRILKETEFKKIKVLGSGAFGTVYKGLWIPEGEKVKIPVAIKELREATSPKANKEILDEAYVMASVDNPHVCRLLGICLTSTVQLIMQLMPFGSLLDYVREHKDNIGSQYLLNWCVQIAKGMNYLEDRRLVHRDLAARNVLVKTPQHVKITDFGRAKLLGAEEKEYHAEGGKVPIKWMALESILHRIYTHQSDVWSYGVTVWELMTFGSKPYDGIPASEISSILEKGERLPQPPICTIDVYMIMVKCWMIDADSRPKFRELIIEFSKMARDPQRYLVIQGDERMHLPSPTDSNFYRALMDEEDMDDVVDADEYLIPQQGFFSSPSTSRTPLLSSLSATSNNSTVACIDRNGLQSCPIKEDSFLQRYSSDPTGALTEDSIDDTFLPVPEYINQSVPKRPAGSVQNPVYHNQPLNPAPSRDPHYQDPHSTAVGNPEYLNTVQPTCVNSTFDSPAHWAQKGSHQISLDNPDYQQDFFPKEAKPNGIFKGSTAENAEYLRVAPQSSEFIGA

Usually DC50 stands for the midpoint of the concentration-degradation curve. Consider `CCc1cc(Nc2ncc(Br)c(Nc3ccc4nc(C)ccc4c3P(C)(C)=O)n2)c(OC2CC2)cc1N1CCC(N2CCN(CCc3cc(F)c([C@H]4CCC(=O)NC4=O)c(F)c3)CC2)CC1` [Example 459, (R)-3-(4-(2-(4-(1-(4-((5-bromo-4-((5-(dimethylphosphoryl)-2-methylquinolin-6-yl)amino)pyrimidin-2-yl)amino)-5-cyclopropoxy-2-ethylphenyl)piperidin-4-yl)piperazin-1-yl)ethyl)-2,6-difluorophenyl)piperidine-2,6-dione], for which, in assay [1], the DC50 is 0.851 nM and the “Dmax (%) H1975 # 28 DTC” value is reported as 86.08%.
By Dmax is commonly meant the greatest extent of degradation seen. Turning to `CCc1cc(Nc2ncc(Br)c(Nc3ccc4nc(NC5CC5)ccc4c3P(C)(C)=O)n2)c(OC)cc1N1CCC(N2CCN(CCc3ccc4c(c3)oc(=O)n4C3CCC(=O)NC3=O)CC2)CC1` (stereo not shown) [Example 633, 3-(6-(2-(4-(1-(4-((5-bromo-4-((2-(cyclopropylamino)-5-(dimethylphosphoryl)quinolin-6-yl)amino)pyrimidin-2-yl)amino)-2-ethyl-5-methoxyphenyl)piperidin-4-yl)piperazin-1-yl)ethyl)-2-oxobenzo[d]oxazol-3(2H)-yl)piperidine-2,6-dione], in assay [1], the DC50 is 0.737 nM and the “Dmax (%) H1975 # 28 DTC” value came to 70.09%. Besides, in assay [2], the DC50 stood at 5.12 nM and the Dmax was 91.7%.
On the same counts, the results for `CCOc1cc(N2CCC(N3CCN(CCCc4cc(C)cc5c4oc(=O)n5C4CCC(=O)NC4=O)CC3)CC2)c(CC)cc1Nc1ncc(Br)c(Nc2ccc3nc(CC)ccc3c2P(C)(C)=O)n1` (stereo not shown) [Example 636, 3-(7-(3-(4-(1-(4-((5-bromo-4-((5-(dimethylphosphoryl)-2-ethylquinolin-6-yl)amino)pyrimidin-2-yl)amino)-5-ethoxy-2-ethylphenyl)piperidin-4-yl)piperazin-1-yl)propyl)-5-methyl-2-oxobenzo[d]oxazol-3(2H)-yl)piperidine-2,6-dione] are 1.52 nM, 79.04%, 11 nM and 92.3%.
Taken in the same sequence, the figures for `CCOc1cc(N2CCC(N3CCN(C[C@H]4CCN(c5cccc6c5oc(=O)n6C5CCC(=O)NC5=O)C4)CC3)CC2)c(CC)cc1Nc1ncc(Br)c(Nc2ccc3c(=O)n(CC)ncc3c2P(C)(C)=O)n1` (stereo partly drawn) [Example 560, 3-(7-((R)-3-((4-(1-(4-((5-bromo-4-((5-(dimethylphosphoryl)-2-ethyl-1-oxo-1,2-dihydrophthalazin-6-yl)amino)pyrimidin-2-yl)amino)-5-ethoxy-2-ethylphenyl)piperidin-4-yl)piperazin-1-yl)methyl)pyrrolidin-1-yl)-2-oxobenzo[d]oxazol-3(2H)-yl)piperidine-2,6-dione] were 1.36 nM, 80.68%, 14.1 nM and 92.3%.
For the compound `CCc1ccc2c(P(C)(C)=O)c(Nc3nc(Nc4cc(CC)c(N5CCC(N6CCN(CCc7cc(C)cc8c7oc(=O)n8C7CCC(=O)NC7=O)CC6)CC5)cc4OC)ncc3Br)ccc2n1` (stereo not shown) [Example 442, 3-(7-(2-(4-(1-(4-((5-bromo-4-((5-(dimethylphosphoryl)-2-ethylquinolin-6-yl)amino)pyrimidin-2-yl)amino)-2-ethyl-5-methoxyphenyl)piperidin-4-yl)piperazin-1-yl)ethyl)-5-methyl-2-oxobenzo[d]oxazol-3(2H)-yl)piperidine-2,6-dione], in assay [1], the DC50 amounted to 1.05 nM and the “Dmax (%) H1975 # 28 DTC” value is listed as 81.11%. In addition, in assay [2], the DC50 worked out at 6.53 nM and the Dmax came out at 87%.
On the same counts, the results for `CCc1cc(Nc2ncc(Br)c(Nc3ccc4nc(C)ccc4c3P(C)(C)=O)n2)c(OC)cc1N1CCC(N2CCN(C(=O)[C@H]3CC[C@@H](Oc4cc(F)c(C5CCC(=O)NC5=O)c(F)c4)CC3)CC2)CC1` (stereo partly shown) [Example 681, 3-(4-(((1s,4s)-4-(4-(1-(4-((5-bromo-4-((5-(dimethylphosphoryl)-2-methylquinolin-6-yl)amino)pyrimidin-2-yl)amino)-2-ethyl-5-methoxyphenyl)piperidin-4-yl)piperazine-1-carbonyl)cyclohexyl)oxy)-2,6-difluorophenyl)piperidine-2,6-dione] are 1.37 nM, 77.05%, 4.65 nM and 96%.
As to `CCc1ccc2c(P(C)(C)=O)c(Nc3nc(Nc4cc(CC)c(N5CCC(N6CCN(C(=O)Cc7cccc8c7n(C)c(=O)n8C7CCC(=O)NC7=O)CC6)CC5)cc4OC)ncc3Br)cc(F)c2n1` (stereo not shown) [Example 671, 3-(4-(2-(4-(1-(4-((5-bromo-4-((5-(dimethylphosphoryl)-2-ethyl-8-fluoroquinolin-6-yl)amino)pyrimidin-2-yl)amino)-2-ethyl-5-methoxyphenyl)piperidin-4-yl)piperazin-1-yl)-2-oxoethyl)-3-methyl-2-oxo-2,3-dihydro-1H-benzo[d]imidazol-1-yl)piperidine-2,6-dione], in assay [1], the DC50 was found to be 0.219 nM and the “Dmax (%) H1975 # 28 DTC” value was determined as 75.9%. Also, in assay [2], the DC50 was 4.85 nM and the maximal degradation (Dmax) worked out at 92.7%.
Consider `CCc1cc(Nc2ncc(Br)c(Nc3ccc4nc(C)ncc4c3P(C)(C)=O)n2)c(OC)cc1N1CCC(N2CCN(CCc3cc(F)c([C@H]4CCC(=O)NC4=O)c(F)c3)CC2)CC1` [Example 739, (R)-3-(4-(2-(4-(1-(4-((5-bromo-4-((5-(dimethylphosphoryl)-2-methylquinazolin-6-yl)amino)pyrimidin-2-yl)amino)-2-ethyl-5-methoxyphenyl)piperidin-4-yl)piperazin-1-yl)ethyl)-2,6-difluorophenyl)piperidine-2,6-dione], for which, in assay [1], the DC50 came out at 0.614 nM and the “Dmax (%) H1975 # 28 DTC” value was found to be 85.55%. Moreover, the DC50 in assay [2] was found to be 2.89 nM.
On to `CCc1ccc2c(P(C)(C)=O)c(Nc3nc(Nc4cc(CC)c(N5CCC(N6CCN(CCc7cccc8c7n(CC)c(=O)n8C7CCC(=O)NC7=O)CC6)CC5)cc4OC)ncc3Br)ccc2n1` (stereo not shown) [Example 453, 3-(4-(2-(4-(1-(4-((5-bromo-4-((5-(dimethylphosphoryl)-2-ethylquinolin-6-yl)amino)pyrimidin-2-yl)amino)-2-ethyl-5-methoxyphenyl)piperidin-4-yl)piperazin-1-yl)ethyl)-3-ethyl-2-oxo-2,3-dihydro-TH-benzo[d]imidazol-1-yl)piperidine-2,6-dione], for which, in assay [1], the DC50 was 0.704 nM and the “Dmax (%) H1975 # 28 DTC” value stood at 77.04%. Besides, in assay [2], the DC50 was determined as 5.7 nM and the greatest degradation seen (Dmax) was 93.1%.
On to `CCc1cc(Nc2ncc(Br)c(Nc3ccc4nc(C)ccc4c3P(C)(C)=O)n2)c(OC)cc1N1CCC(N2CCN(C(=O)[C@@H]3CCN(c4ccc([C@H]5CCC(=O)NC5=O)cc4)C3)CC2)CC1` [Example 569, (R)-3-(4-((R)-3-(4-(1-(4-((5-bromo-4-((5-(dimethylphosphoryl)-2-methylquinolin-6-yl)amino)pyrimidin-2-yl)amino)-2-ethyl-5-methoxyphenyl)piperidin-4-yl)piperazine-1-carbonyl)pyrrolidin-1-yl)phenyl)piperidine-2,6-dione], for which the Dmax in assay [2] is 86.5%.
